Measurements as given in US20230321043A1, “COMPOUNDS HAVING PSEUDOMONAS ANTI-BIOFILM PROPERTIES” (Københavns Universitet, priority 2020, published 2023).

How the values were obtained:
[1] = test system: P. aeruginosa biofilms on implants; test: P. aeruginosa-infected peritoneal implant model in mice; format: in vivo; conditions: intraperitoneal
Protocol: Silicone implants (5 mm long, 6 mm OD×4 mm ID) were incubated with P. aeruginosa cultures (OD 0.1) for 20 hours to allow bacterial adhesion and subsequent coating. At time t=0, mice had the implants inserted in the peritoneal cavity and biofilm developed on the implants for 24 hours. (A) At 24 hours and 26 hours post-insertion of the implants (PI), the mice were treated with either H6-335-P1 (named “H6 P1” in FIG. 8) 25 μM (˜6 μg/g BW) in 0.2% cyclodextrin or 0.2% cyclodextrin, and at 26 hours PI with 30 μg per g BW tobramycin (TOB) or 0.9% NaCl. […] At 28 hours PI the mice were euthanized, and the bacterial contents as CFU per implant were determined. The median CFU per implant for the placebo group was set to 100. The median CFU per implant for the placebo groups were 8.5×10^6 (A) and 1.5×10^6 (B). Horizontal lines indicate median CFU for each group. Each symbol represents a mouse. Significance levels are based on Mann-Whitney U test (analysis of non-parametric data). IP administered doses: TOB: 30 mg/Kg BW, CIP: 10 mg/Kg BW, H6 P1: 2×6 mg/Kg BW.
The inventors first determined H6-335-P1 anti-biofilm efficacy in implant-harboring mice at low dosages (concentration) of 5 to 25 μM H6-335-P1 which corresponds to 1 to 5 μg H6-335-P1 per gram of body weight. […]

[2] = test system: P. aeruginosa biofilms; test: time dependent antibiotic killing of peg biofilms after H6-335-P1 treatment; format: cell-based, Pseudomonas aeruginosa; conditions: 2 hours 100 μM H6-335-P1, then 30 μg/ml tobramycin or 0.5 μg/ml ciprofloxacin
[3] = test system: wt P. aeruginosa biofilm; test: dispersal of 8 hour old biofilm, crystal violet staining; format: cell-based, Pseudomonas aeruginosa
Protocol: Using a 96 well microtiter tray format, a 20 hour old culture of wt P. aeruginosa was diluted 1000 fold into 100 μL ABtrace media aliquots supplemented with 0.2% glucose, 0.5% Cas amino acids and 1 μM FeCl3. The resulting microtiter trays were sealed with an air permeable lid and the biofilm cultures were incubated at 37° C. on a rotary shaker at 160 RPM.
After this, the culture supernatants were discarded and the remaining biomass was stained with crystal violet (Groizeleau et al. 2016). Finally, the amount of Crystal violet bound to the biofilm present in each well was plotted as a function of H6-335-P1, H6-335, H6-335-SAR compound 26 and H6-335- SAR compound 25 in the following concentrations: 100 μM, 50 μM, 25 μM, 12 μM or 0 μM (FIG. 4D). Means and standard deviations (bars) in FIG. 4D represents 5 biological replicates (n=5)

[4] = test system: P. aeruginosa ΔbifAΔwspFΔpelΔpsl/pCdrA-gfp; test: c-di-GMP monitor read-out in bifA knockout; format: cell-based, Pseudomonas aeruginosa; conditions: 100 μM, 18 hours of cultivation, FIG. 6B right
Protocol: This experiment was done using a 96 well microtiter format where 20 hour old cultures of the P. aeruginosa ΔwspFΔpelΔpsl/pCdrA-gfp c-di-GMP monitor strain and the P. aeruginosa ΔbifAΔwspFΔpelΔpsl/pCdrA-gfp c-di-GMP monitor strain were diluted 100 fold into 100 μL ABTrace media aliquots supplemented with 0.2% glucose, 0.5% casamino acids, 1 μM FeCl3, 60 μg/mL of gentamicin, 1% DMSO and either 100 μM or 0 μM of H6-335-P1. The resulting microtitter was incubated at 37° C. and 440 RPM in a Tecan reader, and corresponding values of GFP fluorescence (FU) and cell density (OD600) was measured every 20 minutes for 24 hours.

[5] = test system: P. aeruginosa wspF mutant; test: Congo Red agar plate colony phenotype; format: cell-based, Pseudomonas aeruginosa; conditions: CR plates supplemented with 100 μM; dark red without compound
Description: The inventors employed mutational analysis with the aim of identifying a putative target of H6-335-P1. The compound Congo Red (CR) binds to exopolymers whose production is positively regulated by c-di-GMP in P. aeruginosa (Friedman, L., and R. Kolter. 2003.
Genes involved in matrix formation in Pseudomonas aeruginosa PA14 biofilms. Molecular Microbiology 51:675-690).

N=C1NN=C(N)/C1=N/Nc1ccccc1F [H6-335-P1, 4-[(2-fluorophenyl) hydrazinylidene]pyrazole-3,5-diamine]
biofilm bacteria dispersed from the implant ([1]; 5 to 25 μM (1 to 5 μg per gram of body weight), four hours of exposure, not shown): up to 90%
CFU on implants, combinatorial treatment followed by tobramycin or ciprofloxacin ([1]; FIG. 8): synergistic antimicrobial (lethal) effects
surviving cells of biofilms after antibiotic challenge [2]: substantial decrease of surviving cells
dispersal of an 8 hour old biofilm ([3]; 100 μM, within a 2 hours period): 88%
rank of biofilm dispersing potency among the four tested compounds ([3]; 12 to 100 μM, two hours of dispersal, FIG. 4D): most potent biofilm dispersing compound
fluorescent read-out of ΔbifA c-di-GMP monitor strain [4]: completely unaffected
colony colour on Congo Red plates [5]: white colonies
